# Results published in patent US10167262B2, “Herbicidal substituted 3-arylpyrazoles” (FMC CORPORATION, priority 2014, dated 2019).
# What was measured:
# Format in all cases: in vivo
# kochia (Kochia scoparia) = assay: Test C postemergence greenhouse test, plant response rating 0-100; details: for Plant response rating, Kochia: scale 0 to 100
# Outline: (§1)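 Each weed species was grown in potting medium and sprayed after emergence, when 2–18 cm tall. Ratings, made by eye relative to control pots, were recorded 13–15 days later using a scale where 0 is no effect.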
# wild oat (Avena fatua) = assay: as above; details: for Plant response rating, Oat, Wild: scale 0 to 100
# Outline: as §1
# [1] = system: chickweed (common chickweed, Stellaria media); assay: as above; details: for Plant response rating, Chickweed: scale 0 to 100
# Outline: as §1
# [2] = system: giant foxtail (Setaria faberii); assay: Test C pre-/postemergence greenhouse test, plant response rating 0-100; details: Postemergence; for Plant response rating, Foxtail, Giant: scale 0 to 100
# Outline: (§2)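 Formulated in solvent with surfactant, test chemicals were sprayed on seeded loam/sand pots and, concurrently, on young plants 2–18 cm tall. Evaluation: visual, versus controls, day 13–15.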
# corn (Zea mays) = assay: as above; details: Postemergence, 500 g ai/ha; scale 0 to 100
# Outline: as §2
# [3] = system: winter wheat (Triticum aestivum); assay: as above; details: Postemergence; for Plant response rating, Wheat: scale 0 to 100
# Outline: as §2
# soybean (Glycine max) = assay: as above; details: Postemergence; for Plant response rating, Soybean: scale 0 to 100
# Outline: as §2
# [4] = system: Italian ryegrass (Lolium multiflorum); assay: as above; details: Postemergence; for Plant response rating, Ryegrass, Italian: scale 0 to 100
# Outline: as §2
# [5] = system: ragweed (common ragweed, Ambrosia elatior); assay: as above; details: Postemergence; for Plant response rating, Ragweed: scale 0 to 100;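 as to all read-outs here: 0 is no effect and 100 is complete control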
# Outline: as §2
# [6] = system: blackgrass (Alopecurus myosuroides); assay: as above; details: Postemergence; for Plant response rating, Blackgrass: scale 0 to 100;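 as to all read-outs here: 0 is no effect and 100 is complete control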
# Outline: as §2
# [7] = system: yellow nutsedge (Cyperus esculentus); assay: as above; details: Postemergence; for Plant response rating, Nutsedge, Yellow: scale 0 to 100
# Outline: as §2
# [8] = system: galium (catchweed bedstraw, Galium aparine); assay: as above; details: Postemergence; for Plant response rating, Galium: scale 0 to 100
# Outline: as §2
# [9] = system: pigweed (Amaranthus retroflexus); assay: as above; details: Postemergence
# Outline: as §2
# [10] = system: large (Lg) crabgrass (Digitaria sanguinalis); assay: as above; details: Postemergence; for Plant response rating, Crabgrass, Large: scale 0 to 100
# Outline: as §2
compound,measurement,setting,value
Cn1cc(C(=O)c2cccs2)c(-c2cc(Cl)cc(Cl)c2)n1 [Compound 17],"Plant response rating (0 to 100), Kochia",kochia (Kochia scoparia); 62 g ai/ha,30
same,"Plant response rating (0 to 100), Kochia",kochia (Kochia scoparia); 125 g ai/ha,50
same,"Plant response rating, Kochia",kochia (Kochia scoparia); 250 g ai/ha,50
same,"Plant response rating, Kochia",kochia (Kochia scoparia); 500 g ai/ha,55
same,"Plant response rating (0 to 100), Oat, Wild",wild oat (Avena fatua); 62 g ai/ha,0
same,"Plant response rating (0 to 100), Oat, Wild",wild oat (Avena fatua); 125 g ai/ha,0
same,"Plant response rating, Oat, Wild",wild oat (Avena fatua); 250 g ai/ha,0
same,"Plant response rating, Oat, Wild",wild oat (Avena fatua); 500 g ai/ha,0
same,"Plant response rating (0 to 100), Chickweed",[1]; 62 g ai/ha,10
same,"Plant response rating (0 to 100), Chickweed",[1]; 125 g ai/ha,65
same,"Plant response rating, Chickweed",[1]; 250 g ai/ha,85
same,"Plant response rating, Chickweed",[1]; 500 g ai/ha,85
same,"Plant response rating (0 to 100), Foxtail, Giant",[2]; 62 g ai/ha,0
same,"Plant response rating (0 to 100), Foxtail, Giant",[2]; 125 g ai/ha,0
same,"Plant response rating, Foxtail, Giant",[2]; 250 g ai/ha,5
same,"Plant response rating, Foxtail, Giant",[2]; 500 g ai/ha,10
same,"Plant response rating, Corn",corn (Zea mays),10
same,"Plant response rating (0 to 100), Wheat",[3]; 62 g ai/ha,0
same,"Plant response rating (0 to 100), Wheat",[3]; 125 g ai/ha,0
same,"Plant response rating, Wheat",[3]; 250 g ai/ha,0
same,"Plant response rating, Wheat",[3]; 500 g ai/ha,0
same,"Plant response rating (0 to 100), Soybean",soybean (Glycine max); 62 g ai/ha,0
same,"Plant response rating (0 to 100), Soybean",soybean (Glycine max); 125 g ai/ha,0
same,"Plant response rating, Soybean",soybean (Glycine max); 250 g ai/ha,10
same,"Plant response rating, Soybean",soybean (Glycine max); 500 g ai/ha,15
same,"Plant response rating (0 to 100), Ryegrass, Italian",[4]; 62 g ai/ha,0
same,"Plant response rating (0 to 100), Ryegrass, Italian",[4]; 125 g ai/ha,0
same,"Plant response rating, Ryegrass, Italian",[4]; 250 g ai/ha,0
same,"Plant response rating, Ryegrass, Italian",[4]; 500 g ai/ha,5
same,"Plant response rating (0 to 100), Ragweed",[5]; 62 g ai/ha,0
same,"Plant response rating (0 to 100), Ragweed",[5]; 125 g ai/ha,10
same,"Plant response rating, Ragweed",[5]; 250 g ai/ha,10
same,"Plant response rating, Ragweed",[5]; 500 g ai/ha,10
same,"Plant response rating (0 to 100), Blackgrass",[6]; 62 g ai/ha,0
same,"Plant response rating, Blackgrass",[6]; 125 g ai/ha,0
same,"Plant response rating, Blackgrass",[6]; 250 g ai/ha,0
same,"Plant response rating, Blackgrass",[6]; 500 g ai/ha,5
same,"Plant response rating (0 to 100), Nutsedge, Yellow",[7]; 62 g ai/ha,0
same,"Plant response rating (0 to 100), Nutsedge, Yellow",[7]; 125 g ai/ha,5
same,"Plant response rating, Nutsedge, Yellow",[7]; 250 g ai/ha,5
same,"Plant response rating, Nutsedge, Yellow",[7]; 500 g ai/ha,5
same,"Plant response rating (0 to 100), Galium",[8]; 62 g ai/ha,0
same,"Plant response rating (0 to 100), Galium",[8]; 125 g ai/ha,0
same,"Plant response rating, Galium",[8]; 250 g ai/ha,0
same,"Plant response rating, Galium",[8]; 500 g ai/ha,20
same,"Plant response rating (0 to 100), Pigweed",[9]; 62 g ai/ha,75
same,"Plant response rating (0 to 100), Pigweed",[9]; 125 g ai/ha,80
same,"Plant response rating, Pigweed","[9]; 500 g ai/ha, scale 0 to 100",85
same,"Plant response rating (0 to 100), Crabgrass, Large",[10]; 62 g ai/ha,0
same,"Plant response rating (0 to 100), Crabgrass, Large",[10]; 125 g ai/ha,5
same,"Plant response rating, Crabgrass, Large",[10]; 250 g ai/ha,10
same,"Plant response rating, Crabgrass, Large",[10]; 500 g ai/ha,15
